Test results taken from PMC7070709, “Design, Synthesis, and In Vitro Evaluation of Hydroxybenzimidazole-Donepezil Analogues as Multitarget-Directed Ligands for the Treatment of Alzheimer’s Disease” (Molecules, 2020).
“Also recorded” adds a separate entry of the source. Where two headings read alike, the source gives them in different places.

Key:
Aβ1–42 with Cu(II) [1] = target: T1, Aβ1–42 with Cu(II) (Homo sapiens, UniProt P05067); assay: Inhibition of Cu-induced Aβ1–42 aggregation (thioflavin T fluorescence); assay type: biochemical; settings: inhibitor 40 µM, copper 40 µM, Aβ1–42 40 μM, 24 h, 37 °C
T1 sequence (P05067 672-713): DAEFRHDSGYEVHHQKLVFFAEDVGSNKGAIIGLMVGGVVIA
Method: (§1) The anti-amyloidogenic capacity of the compounds was also evaluated in vitro, in the absence and presence of Cu(II), based on the measurement of the fluorescence emission of Thioflavin T (ThT), a stain known by its Aβ fibril binding capacity. This binding interaction can be analyzed by fluorimetry, since the presence of ThT-fibrils increases the absorbance and the emission of the ThT dye, and it also induces red shifts on the absorbance (from 385 to 446 nm) and emission peaks (from 445 to 485 nm). All the measurements were performed after incubation (24 h, 37 °C) of the self-mediated and Cu^2+-induced Aβ aggregates in the presence/absence of the compounds under evaluation.
(§2) Herein, due to solubility problems of some compounds in the phosphate buffer (0.215 M, pH 8.0) of the working medium, the assays were carried out in the presence of 40 μM concentration of inhibitor and 20 μM in the case of compound 4, instead of 80 μM as previously reported. […] The activity dependence on ligand structural features may be mainly explained by the different ability for intercalation into the fibrils, as already assumed for other inhibitors. […] The data obtained for compounds 6 and 7 indicate that the presence of R1 = F, -NO2 substituents in the BIM have some small positive effect on the inhibition of Aβ aggregation.
(§3) The Aβ peptide was treated with 1,1,1,3,3,3-hexafluoropropan-2-ol (HFIP) and dissolved in a CH3CN/Na2CO3 (300 μM)/NaOH (250 μM) (48.3:48.3:4.3, v/v/v) mixture in order to have a stable stock solution, avoiding self-aggregation of Aβ1–42. Then, the prepared 500 μM solution was diluted at 40 μM in phosphate buffer (0.215 M, pH 8.0).
(§4) The solutions of the tested compounds were prepared in MeOH (1 mg/mL), being further diluted in phosphate buffer to a concentration of 480 μM. For copper-induced aggregation studies, a solution of CuCl2 240 μM was prepared from a stock standard solution (0.015 M). To perform the assays for the Aβ1–42 aggregation inhibition, a reported method, based on the fluorescence emission of thioflavin T (ThT), was followed. Aβ1–42 (40 μM) was incubated at 37 °C, for 24 h with or without Cu(II) (40 μM) in a phosphate buffer in presence or absence of the single ligand (40 μM and 20 μM for compound 4). Then, the samples were added to a 96-well plate with […] of 5 μM ThT in 50 mM glycine-NaOH (pH 8.5) buffer. Blank samples were prepared without the peptide for each concentration. The ThT fluorescence was measured at 446 nm (excitation) and 485 nm (emission). The inhibition percentage of aggregation was calculated by Equation (2), in which IFi and IF0 corresponded to the fluorescence intensities, in the presence and in the absence of the tested compound, subtracted of the fluorescence intensities due to the respective blanks.
(§5) The reported values were obtained as the mean ± SEM of duplicate of three different experiments.

[2] = target: T2, AChE (type VI-S, from electric eel) (Electrophorus electricus, UniProt O42275); assay: AChE inhibition, adaptation of Ellman's method; assay type: biochemical; settings: means of three independent experiments ± SD, read-out: TcAChE Inhibition IC50
T2 construct: purchased type VI-S
T2 sequence (O42275 24-633): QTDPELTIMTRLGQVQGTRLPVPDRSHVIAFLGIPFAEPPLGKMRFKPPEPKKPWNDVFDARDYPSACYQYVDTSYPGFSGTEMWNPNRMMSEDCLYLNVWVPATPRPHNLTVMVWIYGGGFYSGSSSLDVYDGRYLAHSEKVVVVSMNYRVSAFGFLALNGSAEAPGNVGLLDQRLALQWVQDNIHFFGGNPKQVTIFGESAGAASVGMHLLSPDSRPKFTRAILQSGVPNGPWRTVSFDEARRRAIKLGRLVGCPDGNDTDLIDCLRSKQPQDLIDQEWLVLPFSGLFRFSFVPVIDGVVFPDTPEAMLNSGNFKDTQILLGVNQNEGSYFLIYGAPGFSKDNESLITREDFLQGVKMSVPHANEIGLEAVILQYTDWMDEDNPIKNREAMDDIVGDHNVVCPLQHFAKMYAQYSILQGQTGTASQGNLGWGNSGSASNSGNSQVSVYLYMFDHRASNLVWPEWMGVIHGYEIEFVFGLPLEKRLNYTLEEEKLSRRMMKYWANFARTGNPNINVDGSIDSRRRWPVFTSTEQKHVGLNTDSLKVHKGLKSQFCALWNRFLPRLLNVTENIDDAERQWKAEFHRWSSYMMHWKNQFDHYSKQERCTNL
Method: The inhibition of AChE by the DNP-BIM hybrids herein studied was assayed by using a variation of Ellman´s test and the IC50 values obtained are included in Table 2. […]. An adaptation of the Ellman´s method, previously described, was used to measure the acetylcholinesterase inhibitory activity. The assay solution contained 374 µL of 4-(2-hydroxyethyl)-1-piperazineethanesulfonic acid (HEPES) buffer (50 mM, pH 8.0), 476 µL of 5,5’-dithiobis-(2-nitrobenzoic acid) (DTNB, 3 mM), a variable volume (10–50 µL) of the stock solution of each compound in methanol (1 mg/mL), 25 µL of AChE (type VI-S, from electric eel) stock solution, and the necessary amount of methanol to obtain 0.925 mL of sample mixture in a 1 mL cuvette. The samples were incubated for 15 min and then 75 µL of acetylthiocholine iodide (AChI) solution (16 mM) was added. The reaction was monitored for 5 min at 405 nm. Assays were run with a blank containing all the components except AChE, which was replaced by HEPES buffer. The rates of the reaction were calculated as well as the enzyme activity. A control reaction was carried out using methanol as a sample solution and it was considered as 100% activity.
The inhibition curves were obtained by plotting the percentage of enzymatic inhibition versus inhibitor concentration and a calibration curve was got from which the linear regression parameters were obtained.

Aβ1–42 [3] = target: T3, Aβ1–42 (Homo sapiens, UniProt P05067); assay: Inhibition of self-mediated Aβ1–42 aggregation (thioflavin T fluorescence); assay type: biochemical; settings: inhibitor 40 µM, Aβ1–42 40 μM, 24 h, 37 °C; read-out: Aβ1–42 Aggregation Inhibition, Self-Induced
T3 sequence (P05067 672-713): as the sequence (P05067 672-713) above
Method: as §1, §2, §3, §4, §5

SH-SY5Y cells = assay: Neuroprotection from Aβ42-induced toxicity (MTT); assay type: cell-based, human; settings: compound 2.5 µM, 1 h pre-incubation plus 24 h co-incubation with Aβ42 1 µM
Method: Extracellular formation of senile plaques of aggregated Aβ along with the production of reactive oxygen species (ROS) are processes involved in the neurodegeneration that characterize AD [42]. […] Additionally, ROS production is also one of the hallmarks associated with AD pathogenesis.
SH-SY5Y human neuroblastoma cell line (ATCC-CRL-2266) was cultured in Dulbecco’s Modified Eagle Medium (DMEM) (Gibco-Invitrogen, Life Technologies Ltd., Liverpool, UK) supplemented with 10% of heat inactivated fetal bovine serum, 50 U/mL penicillin, and 50 μg/mL streptomycin, at 37 °C in 5% CO2. For the cell viability experiments, cells were plated with a density of 0.12 × 10^6 cells/mL. All the tested compounds (from 7 to 12) were dissolved in DMSO and aliquots were stored at −20 °C with a stock concentration of 25 mM. To choose the highest non-toxic concentration of the compounds, a concentration screening was performed (from 2.5 μM to 10 μM). For the experiments, all the compounds were added to the medium at a final concentration of 2.5 μM. […] Cells were pre-incubated for 1 h with the compounds and then incubated with Aβ1–42 or with Fe/Asc for an additional 24 h. […]
Cell viability was determined using the colorimetric 3-(4,5-dimethylthiazol-2-yl)-2,5-diphenyltetrazolium bromide (MTT) assay. […] The absorbance of the plate was measured at 570 nm. […]

[4] = pH 7.4, CL/CM = 10, CM = 10^−6 M; cited from earlier work
Aβ1–42 with Cu(II) [5] = target: T1, Aβ1–42 with Cu(II); set-up: method as in PMID 32171933; settings: copper 40 µM, cited from earlier work
Aβ1–42 [6] = target: T3, Aβ1–42; set-up: method as in PMID 32171933; settings: cited from earlier work
[7] = target: T2, AChE (type VI-S, from electric eel); settings: read-out: TcAChE Inhibition IC50; cited from earlier work
[8] = Cu(II) chelation by potentiometry; assay type: physicochemical; settings: pH 7.4; read-out: conditional dissociation constant (K´d) for the copper complex
Description: The metal chelating ability of hybrids 7 and 12, due to the BIM bidentate unity with (N,O) coordination mode, was studied by potentiometry. Figure 3A,B show a change in the deprotonation profile of the ligand titration curves due to the presence of the metal ions. In fact, the curves for the Cu(II)/L systems lie well below that of the ligand, while for the Zn(II)/L systems stay under for a > −1 (compound 7) or a > 0 (compound 12), thus supporting the formation of 1:1 and 1:2 M/L ratio complexes with the deprotonated and mono-protonated forms of the ligand and with relative metal dependent stability order (Cu > Zn). Table 1 contains the equilibrium models obtained from the fitting analysis of the potentiometric curves by program Hyperquad. In these equilibrium models, which the coordination core of the compounds integrates the bidentate (N,O) BIM moiety, MHL and MH2L2 correspond to species with the ligand containing one protonated nitrogen atom at the piperazine moiety, ML and ML2 correspond to complexes involving the completely deprotonated form of the ligand while MH-1L2 are mixed ligand-hydroxo metal complexes.
Solutions: the aqueous copper (CuCl2, 0.015 M) and zinc (ZnCl2, 0.0156 M) stock solutions for potentiometric equilibrium studies were prepared from 1000 ppm standards (Titrisol) and their metal content was evaluated by atomic absorption. The titrant solution (0.1 M KOH) was obtained from a carbonate-free commercial concentrate (Titrisol) and standardized by potentiometric titration with potassium hydrogen phthalate. The titrant solution was discarded whenever the percentage of carbonate (Gran’s method) was about 0.5% of the total amount of base.
Measurements: compounds 7 and 12 were titrated in 50% (w/w) DMSO/H2O medium, at T = 25.0 ± 0.1 °C and ionic strength (I) 0.1 M KCl, using 0.1 M KOH as titrant. Both glass and Ag/AgCl reference electrodes were previously conditioned in DMSO/H2O mixtures with increasing amounts of DMSO and the response of the glass electrode was controlled by strong acid–strong base (HCl/KOH) calibrations with the determination of the Nernst parameters by Gran’s method. […] All titrations were performed in duplicate and under the stated experimental conditions the pKw value (13.6) was determined and subsequently used in the computations. The stepwise protonation constant of the ligand, Ki = [HiL]/([Hi–1L][H]), and the overall metal–complex stability constants, βMmHhLl = [MmHhLl]/([M]^m[H]^h[L]^l), were calculated by fitting the potentiometric titration data with Hyperquad 2008 [26]. The metal hydrolysis constants were determined under the defined experimental conditions (I = 0.1 M KCl, 50% w/w DMSO/H2O, T = 25.0 ± 0.1 °C) and the following values of stability constants were included in the fitting of experimental data towards the equilibrium models related to the Cu^2+/L and Zn^2+/L systems: log βCu2H−2 = −9.99; log βZnH−2 = −14.79, log βZnH−3 = −23.48. Species distribution curves were plotted with the Hyss program.

[9] = pH 7.4, CL/CM = 10, CM = 10^−6 M; cited from earlier work; remark: listed apart in the source
[10] = 50% w/w DMSO/water, I = 0.1 M KCl, 25.0 °C; cited from earlier work

COc1ccc(-c2nc3ccc(C(=O)NCCN4CCN(Cc5ccccc5)CC4)cc3[nH]2)c(O)c1 [Compound 9, N-(2-(4-Benzylpiperazin-1-yl)ethyl)-2-(4-metoxy-2-hydroxyphenyl)-1H-benzo[d]imidazole-5-carboxamide]
inhibition at 40 µM (Aβ1–42 with Cu(II) [1]): 66%
IC50 [2]: 1.87 ± 0.8 µM
inhibition at 40 µM (Aβ1–42 [3]): 43.7%
neuroprotective effect against Aβ42-induced cell toxicity (cell viability, MTT) (SH-SY5Y cells): remarkable reduction of Aβ-induced cell toxicity; also recorded: prevented Aβ-induced cell toxicity

O=C(NCCN1CCN(Cc2ccccc2F)CC1)c1ccc2nc(-c3ccccc3O)[nH]c2c1 [Compound 10, N-(2-(4-(2-Fluorobenzyl)piperazin-1-yl)ethyl)-2-(2-hydroxyphenyl)-1H-benzo[d]imidazole-6-carboxamide]
inhibition at 40 µM (Aβ1–42 with Cu(II) [1]): 75.8%
IC50 [2]: 4.32 ± 0.03 µM
inhibition at 40 µM (Aβ1–42 [3]): 39.1%
neuroprotective effect against Aβ42-induced cell toxicity (cell viability, MTT) (SH-SY5Y cells): remarkable reduction of Aβ-induced cell toxicity; also recorded: prevented Aβ-induced cell toxicity

O=C(NCCN1CCN(Cc2ccccc2)CC1)c1ccc2nc(-c3ccccc3O)[nH]c2c1 [Compound 2]
pCu (pM = −log[M]) [4]: 10.7
Aβ1–42 Aggregation Inhibition, Cu-Induced (Aβ1–42 with Cu(II) [5]; footnote d, Cinhibitor = 80 µM): 37.7 ^d %
Aβ1–42 Aggregation Inhibition, Self-Induced (Aβ1–42 [6]; footnote d, Cinhibitor = 80 µM): 25.3 ^d %
IC50 [7]: 6.9 ± 0.6 µM
Kd [8]: 0.024 µM
pZn (pM = −log[M]) [9]: 6.3
log K1, stepwise protonation constant (011) [10]: 9.04(3)
log K2, stepwise protonation constant (021) [10]: 6.76(6)
log K3, stepwise protonation constant (031) [10]: 3.37(7)

O=C(NCC1CCN(Cc2ccccc2)CC1)c1ccc2nc(-c3ccccc3O)[nH]c2c1 [Compound 1]
Aβ1–42 Aggregation Inhibition, Cu-Induced (Aβ1–42 with Cu(II) [5]; footnote e): 69.0 ^e %
Aβ1–42 Aggregation Inhibition, Self-Induced (Aβ1–42 [6]; footnote e): 48.8 ^e %
IC50 [7]: 4.2 ± 0.8 µM
Kd [8]: 0.034 µM
pZn (pM = −log[M]) [9]: 6.3
log K1, stepwise protonation constant (011) [10]: 8.671(1)
log K2, stepwise protonation constant (021) [10]: 7.39(1)
log K3, stepwise protonation constant (031) [10]: 3.21(1)
